Test results published in patent US9371320B2, “Heterocyclic compound” (TAKEDA PHARMACEUTICAL COMPANY LIMITED, priority 2012, dated 2016).

Legend:
Tyk2 = target: T1, Tyk2 (Homo sapiens, UniProt P29597); assay: Tyk2 enzyme inhibition test (LANCE method); assay type: biochemical; settings: for inhibition at 1 µM: test compound 1 μM, read-out: Inhibitory rate (%) Tyk2 1 μM; for inhibition at 10 µM: test compound 10 μM, read-out: Inhibitory rate (%) Tyk2 10 μM
T1 construct: purchased Invitrogen
How it was run: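 LANCE TR-FRET read-out (ex 340/em 665 nm, 100 μs delay) of ULight-JAK1 phosphorylation, with no-enzyme wells as 100% inhibition. Reaction run 1 h at room temperature in pH 7.5 HEPES buffer; enzyme 375 ng/mL, substrate 300 nM and ATP 30 μM are solution concentrations before mixing.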

JAK1 = target: T2, JAK1 (Homo sapiens, UniProt P23458); assay: JAK1 enzyme inhibition test (LANCE method); assay type: biochemical; settings: for inhibition at 1 µM: test compound 1 μM, read-out: Inhibitory rate (%) JAK1 1 μM; for inhibition at 10 µM: test compound 10 μM, read-out: Inhibitory rate (%) JAK1 10 μM
T2 construct: purchased Invitrogen
How it was run: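 Reactions ran 1 h at room temperature in HEPES pH 7.5/MgCl2 buffer, with ATP solution at 150 μM and JAK1 and ULight peptide solutions at 187.5 ng/mL and 300 nM. Reactions were stopped with EDTA, and phosphorylation was read by Eu antibody time-resolved fluorescence at 665 nm. Inhibition was scaled to a no-enzyme control as 100%.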

T2 sequence (P23458 whole entry): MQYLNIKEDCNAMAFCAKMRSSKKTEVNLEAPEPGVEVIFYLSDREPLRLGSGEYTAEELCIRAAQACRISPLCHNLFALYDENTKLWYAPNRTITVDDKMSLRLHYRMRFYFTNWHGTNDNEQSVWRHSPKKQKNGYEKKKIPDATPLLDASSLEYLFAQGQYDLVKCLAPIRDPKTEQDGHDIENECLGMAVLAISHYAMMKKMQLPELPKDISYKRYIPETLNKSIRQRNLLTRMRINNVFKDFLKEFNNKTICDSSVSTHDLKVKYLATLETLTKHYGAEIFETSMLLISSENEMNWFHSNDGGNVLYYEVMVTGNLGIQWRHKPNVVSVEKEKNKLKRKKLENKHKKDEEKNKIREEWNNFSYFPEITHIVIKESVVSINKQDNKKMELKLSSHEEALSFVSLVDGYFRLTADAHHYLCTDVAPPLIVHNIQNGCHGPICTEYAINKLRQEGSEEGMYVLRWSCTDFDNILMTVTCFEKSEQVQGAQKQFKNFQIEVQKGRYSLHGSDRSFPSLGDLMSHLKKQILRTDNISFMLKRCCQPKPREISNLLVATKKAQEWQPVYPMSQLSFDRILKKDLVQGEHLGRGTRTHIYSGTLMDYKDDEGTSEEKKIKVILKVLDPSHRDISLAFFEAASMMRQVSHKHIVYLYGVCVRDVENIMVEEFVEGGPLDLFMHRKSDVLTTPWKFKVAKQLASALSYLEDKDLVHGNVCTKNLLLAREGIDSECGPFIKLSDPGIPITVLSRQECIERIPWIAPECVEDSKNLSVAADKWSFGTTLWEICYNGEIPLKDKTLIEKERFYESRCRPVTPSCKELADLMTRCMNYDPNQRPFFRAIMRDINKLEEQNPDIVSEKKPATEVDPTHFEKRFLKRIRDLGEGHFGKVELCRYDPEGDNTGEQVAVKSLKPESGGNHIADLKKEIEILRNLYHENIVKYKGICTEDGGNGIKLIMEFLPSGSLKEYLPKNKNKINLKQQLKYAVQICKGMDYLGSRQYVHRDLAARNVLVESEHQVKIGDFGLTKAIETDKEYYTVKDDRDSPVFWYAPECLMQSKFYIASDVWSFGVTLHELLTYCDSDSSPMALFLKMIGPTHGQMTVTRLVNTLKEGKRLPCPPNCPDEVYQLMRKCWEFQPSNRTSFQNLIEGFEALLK
T1 sequence (P29597 whole entry): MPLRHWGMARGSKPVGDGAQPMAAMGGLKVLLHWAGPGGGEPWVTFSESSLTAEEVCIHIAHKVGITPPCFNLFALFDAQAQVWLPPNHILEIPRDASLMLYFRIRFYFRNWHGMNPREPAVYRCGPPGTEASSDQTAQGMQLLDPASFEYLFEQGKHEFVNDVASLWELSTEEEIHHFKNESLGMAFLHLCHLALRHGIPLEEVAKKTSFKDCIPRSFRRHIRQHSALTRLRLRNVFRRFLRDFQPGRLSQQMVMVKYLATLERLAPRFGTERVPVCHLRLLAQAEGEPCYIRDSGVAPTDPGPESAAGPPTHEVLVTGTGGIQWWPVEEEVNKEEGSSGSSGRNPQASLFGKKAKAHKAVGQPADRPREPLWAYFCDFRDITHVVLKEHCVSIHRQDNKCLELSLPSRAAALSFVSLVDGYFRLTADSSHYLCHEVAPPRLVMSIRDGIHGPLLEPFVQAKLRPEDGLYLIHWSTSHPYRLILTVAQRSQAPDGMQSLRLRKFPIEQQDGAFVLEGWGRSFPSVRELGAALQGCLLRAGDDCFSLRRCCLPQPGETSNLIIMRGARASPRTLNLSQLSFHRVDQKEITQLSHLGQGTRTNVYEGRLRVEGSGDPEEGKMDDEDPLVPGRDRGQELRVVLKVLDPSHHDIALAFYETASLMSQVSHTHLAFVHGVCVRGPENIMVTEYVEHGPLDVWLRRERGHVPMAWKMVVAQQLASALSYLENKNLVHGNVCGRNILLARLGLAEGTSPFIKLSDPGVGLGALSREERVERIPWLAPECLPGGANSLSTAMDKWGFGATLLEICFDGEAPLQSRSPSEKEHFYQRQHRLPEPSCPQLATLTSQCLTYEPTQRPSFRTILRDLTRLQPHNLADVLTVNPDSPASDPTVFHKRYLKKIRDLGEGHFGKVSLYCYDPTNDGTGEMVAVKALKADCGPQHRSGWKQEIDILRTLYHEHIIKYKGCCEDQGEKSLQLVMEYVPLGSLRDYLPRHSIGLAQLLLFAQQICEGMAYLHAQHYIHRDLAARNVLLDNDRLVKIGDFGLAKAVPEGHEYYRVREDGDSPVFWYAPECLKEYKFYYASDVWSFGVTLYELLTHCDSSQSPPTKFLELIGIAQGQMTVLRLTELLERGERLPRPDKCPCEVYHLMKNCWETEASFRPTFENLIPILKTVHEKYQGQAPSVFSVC

| Structure (SMILES) | inhibition at 1 µM (Tyk2) [%] | inhibition at 1 µM (JAK1) [%] | inhibition at 10 µM (Tyk2) [%] | inhibition at 10 µM (JAK1) [%] |
| --- | --- | --- | --- | --- |
| O=c1[nH]ccc2c1c(-c1ccc(N3CCOCC3)cc1)nn2C1CCC(F)(F)CC1 [Example 266, 1-(4,4-difluorocyclohexyl)-3-(4-(morpholin-4-yl)phenyl)-1,5-dihydro-4H-pyrazolo[4,3-c]pyridin-4-one] | 91 | 85 |  |  |
| NC(=O)c1ccc(F)c(-c2nn(-c3c(F)cccc3F)c3c(Cl)c[nH]c(=O)c23)c1 [Example 269, 3-(7-chloro-1-(2,6-difluorophenyl)-4-oxo-4,5-dihydro-1H-pyrazolo[4,3-c]pyridin-3-yl)-4-fluorobenzamide] |  |  | 29 | 24 |
| NC(=O)c1cc(F)cc(-c2nn(-c3c(F)cccc3F)c3c(Cl)c[nH]c(=O)c23)c1 [Example 270, 3-(7-chloro-1-(2,6-difluorophenyl)-4-oxo-4,5-dihydro-1H-pyrazolo[4,3-c]pyridin-3-yl)-5-fluorobenzamide] | 69 | 0 |  |  |
| CNC(=O)c1ccc(F)c(-c2nn(-c3c(F)cccc3F)c3c(Cl)c[nH]c(=O)c23)c1 [Example 271, 3-(7-chloro-1-(2,6-difluorophenyl)-4-oxo-4,5-dihydro-1H-pyrazolo[4,3-c]pyridin-3-yl)-4-fluoro-N-methylbenzamide] |  |  | 26 | -1 |
| CNC(=O)c1cc(F)cc(-c2nn(-c3c(F)cccc3F)c3c(Cl)c[nH]c(=O)c23)c1 [Example 273, 3-(7-chloro-1-(2,6-difluorophenyl)-4-oxo-4,5-dihydro-1H-pyrazolo[4,3-c]pyridin-3-yl)-5-fluoro-N-methylbenzamide] | 71 | 1 |  |  |
| O=C1CCCN1Cc1ccc(-c2nn(-c3c(F)cccc3F)c3cc[nH]c(=O)c23)cc1 [Example 275, 1-(2,6-difluorophenyl)-3-(4-((2-oxopyrrolidin-1-yl)methyl)phenyl)-1,5-dihydro-4H-pyrazolo[4,3-c]pyridin-4-one] | 98 | 96 |  |  |
| O=C1NCCN1c1ccc(-c2nn(-c3c(F)cccc3F)c3cc[nH]c(=O)c23)cc1 [Example 276, 1-(2,6-difluorophenyl)-3-(4-(2-oxoimidazolidin-1-yl)phenyl)-1,5-dihydro-4H-pyrazolo[4,3-c]pyridin-4-one] | 99 | 91 |  |  |
| CC(=O)N1CCN(c2ccc(-c3nn(-c4c(F)cccc4F)c4cc[nH]c(=O)c34)cc2)CC1 [Example 279, 3-(4-(4-acetylpiperazin-1-yl)phenyl)-1-(2,6-difluorophenyl)-1,5-dihydro-4H-pyrazolo[4,3-c]pyridin-4-one] | 99 | 96 |  |  |
| O=c1[nH]ccc2c1c(Nc1ccccc1)nn2C1CCCC1 [Example 283, 3-anilino-1-cyclopentyl-1,5-dihydro-4H-pyrazolo[4,3-c]pyridin-4-one] | 93 | 98 |  |  |
| NS(=O)(=O)c1cccc(Nc2nn(C3CCCC3)c3cc[nH]c(=O)c23)c1 [Example 284, 3-((1-cyclopentyl-4-oxo-4,5-dihydro-1H-pyrazolo[4,3-c]pyridin-3-yl)amino)benzenesulfonamide] | 96 | 99 |  |  |
| NS(=O)(=O)c1cccc(Nc2nn(C3CCCC3)c3c(Br)c[nH]c(=O)c23)c1 [Example 285, 3-((7-bromo-1-cyclopentyl-4-oxo-4,5-dihydro-1H-pyrazolo[4,3-c]pyridin-3-yl)amino)benzenesulfonamide] | 82 | 70 |  |  |
| O=c1[nH]ccc2c1c(-c1cccc(CN3CCCC3)c1)nn2-c1c(F)cccc1F [Example 288, 1-(2,6-difluorophenyl)-3-(3-(pyrrolidin-1-ylmethyl)phenyl)-1,5-dihydro-4H-pyrazolo[4,3-c]pyridin-4-one] | 94 | 55 |  |  |
| O=C1CCCN1c1ccc(-c2nn(-c3c(F)cccc3F)c3cc[nH]c(=O)c23)cc1 [Example 292, 1-(2,6-difluorophenyl)-3-(4-(2-oxopyrrolidin-1-yl)phenyl)-1,5-dihydro-4H-pyrazolo[4,3-c]pyridin-4-one] | 99 | 97 |  |  |

Now from value to compound:

| inhibition at 1 µM (Tyk2) [%] | inhibition at 1 µM (JAK1) [%] | inhibition at 10 µM (Tyk2) [%] | inhibition at 10 µM (JAK1) [%] | Structure (SMILES) |
| --- | --- | --- | --- | --- |
| 92 | 97 |  |  | CC[C@@H](COC)n1nc(-c2csc(C(N)=O)c2)c2c(=O)[nH]ccc21 [Example 262, 4-(1-((2S)-1-methoxybutan-2-yl)-4-oxo-4,5-dihydro-1H-pyrazolo[4,3-c]pyridin-3-yl)thiophene-2-carboxamide] |
| 90 | 97 |  |  | CC[C@H](COC)n1nc(-c2csc(C(N)=O)c2)c2c(=O)[nH]ccc21 [Example 263, 4-(1-((2R)-1-methoxybutan-2-yl)-4-oxo-4,5-dihydro-1H-pyrazolo[4,3-c]pyridin-3-yl)thiophene-2-carboxamide] |
|  |  | 12 | 44 | CC(C)(C)n1nc(N)c2c(=O)[nH]ccc21 [Example 264, 3-amino-1-tert-butyl-1,5-dihydro-4H-pyrazolo[4,3-c]pyridin-4-one] |
|  |  | 24 | 21 | CC(C)(C)n1nc(NC(=O)c2ccccc2)c2c(=O)[nH]ccc21 [Example 265, N-(1-tert-butyl-4-oxo-4,5-dihydro-1H-pyrazolo[4,3-c]pyridin-3-yl)benzamide] |
|  |  | 31 | 17 | NC(=O)c1ccc(F)c(-c2nn(-c3c(F)cccc3F)c3cc[nH]c(=O)c23)c1 [Example 267, 3-(1-(2,6-difluorophenyl)-4-oxo-4,5-dihydro-1H-pyrazolo[4,3-c]pyridin-3-yl)-4-fluorobenzamide] |
| 33 | 4 |  |  | NC(=O)c1cc(F)cc(-c2nn(-c3c(F)cccc3F)c3cc[nH]c(=O)c23)c1 [Example 268, 3-(1-(2,6-difluorophenyl)-4-oxo-4,5-dihydro-1H-pyrazolo[4,3-c]pyridin-3-yl)-5-fluorobenzamide] |
|  |  | 25 | 12 | CNC(=O)c1ccc(F)c(-c2nn(-c3c(F)cccc3F)c3cc[nH]c(=O)c23)c1 [Example 272, 3-(1-(2,6-difluorophenyl)-4-oxo-4,5-dihydro-1H-pyrazolo[4,3-c]pyridin-3-yl)-4-fluoro-N-methylbenzamide] |
| 77 | 34 |  |  | CNC(=O)c1cc(F)cc(-c2nn(-c3c(F)cccc3F)c3cc[nH]c(=O)c23)c1 [Example 274, 3-(1-(2,6-difluorophenyl)-4-oxo-4,5-dihydro-1H-pyrazolo[4,3-c]pyridin-3-yl)-5-fluoro-N-methylbenzamide] |
| 99 | 95 |  |  | CC(=O)Nc1ccc(-c2nn(-c3c(F)cccc3F)c3cc[nH]c(=O)c23)cc1 [Example 277, N-(4-(1-(2,6-difluorophenyl)-4-oxo-4,5-dihydro-1H-pyrazolo[4,3-c]pyridin-3-yl)phenyl)acetamide] |
| 98 | 92 |  |  | O=c1[nH]ccc2c1c(-c1cccc(CO)c1)nn2-c1c(F)cccc1F [Example 278, 1-(2,6-difluorophenyl)-3-(3-(hydroxymethyl)phenyl)-1,5-dihydro-4H-pyrazolo[4,3-c]pyridin-4-one-] |
| 97 | 94 |  |  | NC(=O)c1cc(-c2nn(C3CCCC3)c3c(Br)c[nH]c(=O)c23)cs1 [Example 280, 4-(7-bromo-1-cyclopentyl-4-oxo-4,5-dihydro-1H-pyrazolo[4,3-c]pyridin-3-yl)thiophene-2-carboxamide] |
| 96 | 96 |  |  | Cc1c[nH]c(=O)c2c(-c3csc(C(N)=O)c3)nn(C3CCCC3)c12 [Example 281, 4-(1-cyclopentyl-7-methyl-4-oxo-4,5-dihydro-1H-pyrazolo[4,3-c]pyridin-3-yl)thiophene-2-carboxamide] |
| 85 | 76 |  |  | NC(=O)c1cc(-c2nn(C3CCCC3)c3c(C4CC4)c[nH]c(=O)c23)cs1 [Example 282, 4-(1-cyclopentyl-7-cyclopropyl-4-oxo-4,5-dihydro-1H-pyrazolo[4,3-c]pyridin-3-yl)thiophene-2-carboxamide] |
| 97 | 98 |  |  | CN(C)C(=O)c1cc(-c2nn(C3CCCC3)c3cc[nH]c(=O)c23)cs1 [Example 286, 4-(1-cyclopentyl-4-oxo-4,5-dihydro-1H-pyrazolo[4,3-c]pyridin-3-yl)-N,N-dimethylthiophene-2-carboxamide] |
| 99 | 92 |  |  | CN(C)NC(=O)c1ccc(-c2nn(-c3c(F)cccc3F)c3cc[nH]c(=O)c23)cc1 [Example 289, 4-(1-(2,6-difluorophenyl)-4-oxo-4,5-dihydro-1H-pyrazolo[4,3-c]pyridin-3-yl)-N′,N′-dimethylbenzhydrazide] |
| 95 | 98 |  |  | NS(=O)(=O)c1ccc(-c2nn(C3CCC(F)(F)CC3)c3cc[nH]c(=O)c23)cc1 [Example 290, 4-(1-(4,4-difluorocyclohexyl)-4-oxo-4,5-dihydro-1H-pyrazolo[4,3-c]pyridin-3-yl)benzenesulfonamide] |
|  |  | 22 | 0 | CNC(=O)Cc1ccc(F)c(-c2nn(-c3c(F)cccc3F)c3cc[nH]c(=O)c23)c1 [Example 293, 2-(3-(1-(2,6-difluorophenyl)-4-oxo-4,5-dihydro-1H-pyrazolo[4,3-c]pyridin-3-yl)-4-fluorophenyl)-N-methylacetamide] |
